Data on 14 compounds can be found in ChEMBL document CHEMBL1127984, “Beneficial replacement of the P1 phenylalanine side chain in HIV-1 protease inhibitors of the difluorostatone type” (Bioorg Med Chem Lett, 1994).

For test [1], the target named is Human immunodeficiency virus type 1 protease (Human immunodeficiency virus 1, UniProt Q72874). Briefly: Compound was tested for inactivation of purified HIV-1 protease in vitro.
Test [2] has as its system MT4. Briefly: Effective dose that inhibits cellular growth of MT-4 cells infected with HIV-1 RF strain. Type of test: functional, cell-based. To be noted: Homo sapiens.
Test [3] deals with MT4. Kind of test: […]. Type of test: functional. To be noted: Homo sapiens.
Test [4] can be described thus: Ratio between Cytotoxic dose and effective dose was determined. Type of test: functional.
A further test deals with CCRF-CEM. Briefly: Effective dose that inhibits cellular growth of CEM cells infected with HIV-1 IIIB strain. Type of test: functional, cell-based. To be noted: Homo sapiens.
Test [5] relates to JM1. Briefly: Effective dose that inhibits cellular growth of JM cells infected with HIV-1 GB8 strain. Type of test: functional, cell-based. To be noted: Homo sapiens.
Test [6] has as its system C8166. Briefly: Cytotoxic dose against HIV-1 was determined in C8166 cells. Type of test: functional. The conditions noted are these: Homo sapiens.
For test [7], the system named is C8166. Briefly: Effective dose that inhibits cellular growth of C8166 cells infected with SIV mac251 strain. The conditions noted are these: Homo sapiens.
The test system of test [8] is JM1. Briefly: Cytotoxic dose against HIV-1 GB8 strain was determined in JM cells. Type of test: functional. To be noted: Homo sapiens.
Test [9] relates to C8166. Briefly: Effective dose that inhibits cellular growth of C8166 cells infected with HIV-1 RF strain. Type of test: functional, cell-based. The conditions noted are these: Homo sapiens.
Test [10] deals with MT2. Briefly: Effective dose that inhibits cellular growth of MT2 cells infected with HIV-1 105/A strain. Type of test: functional, cell-based. To be noted: Homo sapiens.
Test [11] deals with C8166. Briefly: Effective dose that inhibits cellular growth of C8166 cells infected with HIV-2 rod strain. The conditions noted are these: Homo sapiens. Type of test: functional, cell-based.
For test [12], the system named is H9. Briefly: Effective dose that inhibits cellular growth of H9 cells infected with HIV-1 RF strain. Type of test: functional, cell-based. The conditions noted are these: Homo sapiens.
Test [13] concerns H9. Briefly: Effective dose that inhibits cellular growth of H9 cells infected with HIV-1 U455 strain. Type of test: functional, cell-based. The conditions noted are these: Homo sapiens.
The species named for the next test is Homo sapiens. Kind of test: Effective dose that inhibits cellular growth of PBMCs cells infected with HIV-1 CCI strain. Type of test: functional, cell-based. The conditions noted are these: PBMC.
Test [14] relates to H9. Kind of test: Effective dose that inhibits cellular growth of H9 cells infected with HIV-1 IIIB strain. To be noted: Homo sapiens. Type of test: functional, cell-based.
In test [15] the test system is MT2. Kind of test: Effective dose that inhibits cellular growth of MT2 cells infected with HIV-1 105/F strain. Type of test: functional, cell-based. The conditions noted are these: Homo sapiens.

Consider `CC(C)[C@H](NC(=O)OCc1ccccc1)C(=O)NC(Cc1ccccc1)C(=O)C(F)(F)C(=O)N1CCc2ccccc2C1` (some centres undefined), for which, in test [1], inhibition was half-maximal at 0.05 µM (IC50).

The compound `CC(C)[C@H](NC(=O)OCc1ccccc1)C(=O)NC(Cc1ccccc1)C(=O)C(F)(F)C(=O)N1CCOCC1` (some centres undefined) returned a Ki in test [1] of 0.07 µM. In addition, the EC50 (in general, the concentration needed to bring the measured effect to its halfway point) with MT4 [2] was 50 µM. Besides, the CC50 in the test on MT4 [3] is > 100 µM. For the same compound, the Ratio in test [4] is on record as >2.

Turning to `CC(C)[C@H](NC(=O)OC(C)(C)C)C(=O)NC(Cc1ccc(OCc2ccccc2)cc1)C(=O)C(F)(F)C(=O)NCc1ccccc1` (some centres undefined), the 50% effective concentration (EC50) in the test on MT4 [2] was > 10 µM. In the test with MT4 [3], this compound returned a CC50 of 10 µM.

With `CCN(Cc1ccccc1)C(=O)C(F)(F)C(=O)C(Cc1ccc(OCc2ccccc2)cc1)NC(=O)[C@@H](NC(=O)OCc1ccccc1)C(C)C` (some centres undefined), in [1], the midpoint of inhibition, the IC50, lay at 0.015 µM. The midpoint of the response in the test on MT4 [2], the EC50, lay at 8 µM. For the same compound, the CC50 in the test with MT4 [3] was 10 µM. Moreover, the Ratio in test [4] is ~1.

With `O=C(NC(C(=O)NC(Cc1ccc(OCc2ccccc2)cc1)C(=O)C(F)(F)C(=O)NCc1ccccc1)C1CCCC1)OCc1ccccc1` (centres undefined), the IC50 (as a rule, the concentration that inhibits the measured activity by half) in [1] was 0.006 µM. Also, the CC50 in the test with MT4 [3] is > 100 µM. In addition, the Ratio in [4] is given as >33.

`CC(C)[C@H](NC(=O)CCc1cccnc1)C(=O)NC(Cc1ccc(OCc2ccccc2)cc1)C(=O)C(F)(F)C(=O)NCc1ccccc1` (some centres undefined) came in with a 50% inhibitory concentration (IC50) in [1] of 0.008 µM. The compound further had an EC50 in the test on MT4 [2] of 0.32 µM. Besides, in the test with MT4 [3], the CC50 was > 100 µM. Also, the Ratio in test [4] is given as >100.

Turning to `CC(C)[C@H](NC(=O)OCc1ccccc1)C(=O)NC(Cc1ccccc1)C(=O)C(F)(F)C(=O)NCc1ccccc1` (some centres undefined), the Ki in test [1] worked out at 0.001 µM. In addition, in the test on MT4 [2], the 50% effective concentration (EC50) was 5 µM. This compound displayed a CC50 with MT4 [3] of 23 µM. Besides, the Ratio in test [4] is listed as ~5.

Compound `CC(C)[C@H](NC(=O)OCc1ccccc1)C(=O)NC(Cc1ccc(OCc2ccccc2)cc1)C(=O)C(F)(F)C(=O)N1CCOCC1` (some centres undefined) had a Ki in test [1] of 0.005 µM. In addition, the EC50 in the test with MT4 [2] turned out to be 3.2 µM. The CC50 in the test on MT4 [3] is 64 µM. Besides, the Ratio in test [4] stood at 20.

`CC(C)[C@H](NC(=O)OCc1ccccc1)C(=O)NC(Cc1ccc(OCc2ccccc2)cc1)C(=O)C(F)(F)C(=O)N(C)Cc1ccccc1` (some centres undefined) came in with a Ki in test [1] of 0.0004 µM. Moreover, a half-maximal effect in the test with MT4 [2] (EC50) was put at 0.28 µM. Further, the CC50 with MT4 [3] was > 100 µM. In test [4], the Ratio was >300.

In the case of `CC(C)[C@H](NC(=O)OCc1ccccc1)C(=O)NC(Cc1ccc(OCc2ccccc2)cc1)C(=O)C(F)(F)C(=O)NCc1ccccc1` (some centres undefined), the EC50 is 0.72 µM with CCRF-CEM; 0.14 µM in the test on JM1 [5]; 0.3 µM in the test on MT4 [2]; 0.63 µM in the test on C8166 [7]; 0.1 µM in the test on C8166 [9]; 0.23 µM with MT2 [10]. The EC50 in the test on C8166 [11] was found to be 0.35 µM; with H9 [12], 0.056 µM; in the test with H9 [13] it was 0.42 µM; in the test filed under Homo sapiens it was 0.56 µM; with H9 [14], 0.29 µM; in the test with MT2 [15], 0.38 µM. For the same compound, the CC50 in the test with C8166 [6], with JM1 [8] and with MT4 [3] was > 100 µM throughout. For the same compound, the Ki in test [1] was 0.005 µM. In test [4], the Ratio was >300.

Regarding `O=C(NC(C(=O)NC(Cc1ccc(OCc2ccccc2)cc1)C(=O)C(F)(F)C(=O)NCc1ccccc1)C1CCCCC1)OCc1ccccc1` (centres undefined), the half-maximal inhibitory concentration (IC50) in test [1] was 0.07 µM. Also, in the test with MT4 [2], the EC50 is > 100 µM. Also, the CC50 in the test on MT4 [3] is > 100 µM.

For `CC(C)[C@H](NS(=O)(=O)Cc1ccccc1)C(=O)NC(Cc1ccc(OCc2ccccc2)cc1)C(=O)C(F)(F)C(=O)NCc1ccccc1` (some centres undefined), 48 µM corresponded to half-maximal inhibition in test [1] (IC50).

`CC(C)C[C@H](NC(=O)OCc1ccccc1)C(=O)NC(Cc1ccc(OCc2ccccc2)cc1)C(=O)C(F)(F)C(=O)NCc1ccccc1` (some centres undefined): 0.015 µM corresponded to half-maximal inhibition in test [1] (IC50). This compound had a concentration for a half-maximal effect (EC50) with MT4 [2] of 0.19 µM. This compound also returned a CC50 in the test on MT4 [3] of 3.2 µM. In addition, the Ratio in test [4] stood at 17.

In turn, `CC(C)[C@H](NC(=O)OCc1ccccc1)C(=O)NC(Cc1ccc(OCc2ccccc2)cc1)C(=O)C(F)(F)C(=O)N1CCc2ccccc2C1` (some centres undefined) had an IC50 in test [1] of 0.002 µM. The compound further registered an EC50 in the test with MT4 [2] of 0.36 µM. The CC50 in the test with MT4 [3] is > 100 µM. Also, the Ratio in [4] is on record as >280.
